Test results from patent US20060281711A1, “IL-12 modulatory compounds” (Synta Pharmaceuticals Corp., priority 2005, published 2006).

system: IL-12; assay: Human in vitro assay: inhibition of IL-12 production in stimulated human PBMC or THP-1 cells (ELISA); format: cell-based; settings: read-out: IC50 Range (in vitro IC50 for IL-12)
Description: The biological activities of a compound of the invention can be evaluated by a number of cell-based assays. One of such assays can be conducted using cells from human peripheral blood mononuclear cells (PBMC) or human monocytic cell line (THP-1). The cells are stimulated with a combination of human interferon-γ (IFNγ) and lipopolysaccharide or a combination of IFNγ and Staphylococcus aureus Cowan I in the presence of a test compound. The level of inhibition of IL-12 production can be measured by determining the amount of p70 by using a sandwich ELISA assay with anti-human IL-12 antibodies. IC50 of the test compound can then be determined. Specifically, PBMC or THP-1 cells are incubated with the test compound. Cell viability was assessed using the bioreduction of MTS [3-(4,5-dimethylthiazol-2-yl)-5-(3-carboxymethoxyphenyl)-2-(4-sulfophenyl)-2H-tetrazolium] (Promega, Madison, Wis.).
8. Reagents. Staphylococcus aureus Cowan I (SAC) was obtained from Calbiochem (La Jolla, Calif.), and lipopolysaccharide (LPS, Serratia marscencens) was obtained from Sigma (St. Louis, Mo.). Human and mouse recombinant IFNγ were purchased from Boehringer Mannheim (Mannheim, Germany) and Pharmingen (San Diego, Calif.), respectively.
9. Human In Vitro Assay. Human PBMC were isolated by centrifugation using Ficoll-Paque (Pharmacia Biotech, Uppsala, Sweden) and prepared in RPMI medium supplemented with 10% fetal calf serum (FCS), 100 U/mL penicillin, and 100 μg/mL streptomycin. PBMC were plated in wells of a 96-well plate at a concentration of 5×10^5 cells/well, and primed by adding IFNγ (30 U/mL) for 22 h and stimulated by adding LPS (1 μg/mL), or by adding IFNγ (100 U/mL) and then stimulated by adding SAC (0.01%). A test pyrimidine compound was dissolved in DMSO, and added to wells of the 96-well plate. The final DMSO concentration was adjusted to 0.25% in all cultures, including the compound-free control. Human THP-1 cells were plated in wells, primed by adding IFNγ (100 U/mL) for 22 h and stimulated by adding SAC (0.025%) in the presence of different concentrations of the pyrimidine compound. Cell-free supernatants were taken 18 h later for measurement of cytokines. Cell viability was assessed using the bioreduction of MTS. Cell survival was estimated by determining the ratio of the absorbance in compound-treated groups versus compound-free control.
10. The supernatant was assayed for the amount of […], IL-12p70, or IL-10 by using a sandwich ELISA with anti-human antibodies, i.e., a Human IL-12 p40 ELISA kit from R&D Systems (Berkeley, Calif.), and a Human IL-12 p70 or IL-10 ELISA kit from Endogen (Cambridge, Mass.). Assays were based on the manufacturer's instructions.
The biological activities of compounds of the invention were tested on human PBMC or THP-1 cells.

SMILES | IC50
c1ccc2c(c1)CC/C2=N\Nc1cc(N2CCOCC2)nc(OCCN2CCOCC2)n1 [Compound 4, N-(Indan-1-ylidene)-N′-[6-morpholin-4-yl-2-(2-morpholin-4-yl-ethoxy)-pyrimidin-4-yl]-hydrazine] | ≥ 1000 nM
c1ccc2c(c1)CCC/C2=N\Nc1cc(N2CCOCC2)nc(OCCN2CCOCC2)n1 [Compound 11, N-(3,4-Dihydro-2H-naphthalen-1-ylidene)-N′-[6-morpholin-4-yl-2-(2-morpholin-4-yl-ethoxy)-pyrimidin-4-yl]-hydrazine] | ≥ 1000 nM
Cc1ccc2c(c1)/C(=N/Nc1cc(N3CCOCC3)nc(OCCN3CCOCC3)n1)CCO2 [Compound 2, N-(6-Methyl-chroman-4-ylidene)-N′-[6-morpholin-4-yl-2-(2-morpholin-4-yl-ethoxy)-pyrimidin-4-yl]-hydrazine] | < 1000 nM
CC(C)(O)CCc1nc(N/N=C2\CCCc3cc(O)ccc32)cc(N2CCOCC2)n1 [Compound 24, 5-{[2-(3-Hydroxy-3-methyl-butyl)-6-morpholin-4-yl-pyrimidin-4-yl]-hydrazono}-5,6,7,8-tetrahydro-naphthalen-2-ol] | ≥ 1000 nM
c1ccc2c(c1)CC(=NNc1cc(N3CCOCC3)nc(OCCN3CCOCC3)n1)C2 [Compound 10, N-(Indan-2-ylidene)-N′-[6-morpholin-4-yl-2-(2-morpholin-4-yl-ethoxy)-pyrimidin-4-yl]-hydrazine] | ≥ 1000 nM
c1cc2c(o1)CCC/C2=N\Nc1cc(N2CCOCC2)nc(OCCN2CCOCC2)n1 [Compound 41, N-(6,7-Dihydro-5H-benzofuran-4-ylidene)-N′-[6-morpholin-4-yl-2-(morpholin-4-yl-ethoxy)-pyrimidin-4-yl]-hydrazine] | ≥ 1000 nM
COc1ccc2c(c1)CCC/C2=N\Nc1cc(N2CCOCC2)nc(OCCN2CCOCC2)n1 [Compound 13, N-(6-Methoxy-3,4-dihydro-2H-naphthalen-1-ylidene)-N′-[6-morpholin-4-yl-2-(2-morpholin-4-yl-ethoxy)-pyrimidin-4-yl]-hydrazine] | < 1000 nM
COc1ccc2c(c1)/C(=N/Nc1cc(N3CCOCC3)nc(OCCN3CCOCC3)n1)CCC2 [Compound 14, N-(7-Methoxy-3,4-dihydro-2H-naphthalen-1-ylidene)-N′-[6-morpholin-4-yl-2-(2-morpholin-4-yl-ethoxy)-pyrimidin-4-yl]-hydrazine] | < 1000 nM
COc1ccc2c(c1)CC/C2=N\Nc1cc(N2CCOCC2)nc(OCCN2CCOCC2)n1 [Compound 8, N-(5-Methoxy-indan-1-ylidene)-N′-[6-morpholin-4-yl-2-(2-morpholin-4-yl-ethoxy)-pyrimidin-4-yl]-hydrazine] | ≥ 1000 nM
O=[N+]([O-])c1ccc2c(c1)/C(=N/Nc1cc(N3CCOCC3)nc(OCCN3CCOCC3)n1)CCC2 [Compound 15, N-(7-Nitro-3,4-dihydro-2H-naphthalen-1-ylidene)-N′-[6-morpholin-4-yl-2-(2-morpholin-4-yl-ethoxy)-pyrimidin-4-yl]-hydrazine] | < 1000 nM
Cc1cc(C)c2c(c1)/C(=N/Nc1cc(N3CCOCC3)nc(OCCN3CCOCC3)n1)CCC2 [Compound 17, N-(5,7-Dimethyl-3,4-dihydro-2H-naphthalen-1-ylidene)-N′-[6-morpholin-4-yl-2-(2-morpholin-4-yl-ethoxy)-pyrimidin-4-yl]-hydrazine] | < 1000 nM
CN1C(=O)/C(=N/Nc2cc(N3CCOCC3)nc(OCCN3CCOCC3)n2)c2ccccc21 [Compound 20, 1-Methyl-3-{[6-morpholin-4-yl-2-(2-morpholin-4-yl-ethoxy)-pyrimidin-4-yl]-hydrazono}-1,3-dihydro-indol-2-one] | ≥ 1000 nM
O=C1OCCN1CCOc1nc(N/N=C2\CCCc3cc(O)ccc32)cc(N2CCOCC2)n1 [Compound 22, 3-(2-{4-[N′-(6-Hydroxy-3,4-dihydro-2H-naphthalen-1-ylidene)-hydrazino]-6-morpholin-4-yl-pyrimidin-2-yloxy}-ethyl)-oxazolidin-2-one] | < 1000 nM
CC1C/C(=N/Nc2cc(N3CCOCC3)nc(OCCN3CCOCC3)n2)c2ccccc21 (stereo not drawn) [Compound 6, N-(3-Methyl-indan-1-ylidene)-N′-[6-morpholin-4-yl-2-(2-morpholin-4-yl-ethoxy)-pyrimidin-4-yl]-hydrazine] | ≥ 1000 nM
Cc1ccc2c(c1)/C(=N/Nc1cc(N3CCOCC3)nc(OCCN3CCOCC3)n1)CC2 [Compound 3, N-(6-Methyl-indan-1-ylidene)-N′-[6-morpholin-4-yl-2-(2-morpholin-4-yl-ethoxy)-pyrimidin-4-yl]-hydrazine] | < 1000 nM
Clc1ccc2c(c1)/C(=N/Nc1cc(N3CCOCC3)nc(OCCN3CCOCC3)n1)CCS2 [Compound 37, N-(6-Chloro-thiochroman-4-ylidene)-N′-[6-morpholin-4-yl-2-(2-morpholin-4-yl-ethoxy)-pyrimidin-4-yl]-hydrazine] | < 1000 nM
c1ccc2c(c1)OC/C2=N\Nc1cc(N2CCOCC2)nc(OCCN2CCOCC2)n1 [Compound 5, N-(Benzofuran-3-ylidene)-N′-[6-morpholin-4-yl-2-(2-morpholin-4-yl-ethoxy)-pyrimidin-4-yl]-hydrazine] | ≥ 1000 nM
Cc1ccc2c(c1)/C(=N/Nc1cc(N3CCOCC3)nc(OCCN3CCOCC3)n1)C(=O)N2 [Compound 1, 5-methyl-3-{[6-morpholin-4-yl-2-(2-morpholin-4-yl-ethoxy)-pyrimidin-4-yl]-hydrazono}-1,3-dihydro-indol-2-one] | < 1000 nM
CC1CC/C(=N\Nc2cc(N3CCOCC3)nc(OCCN3CCOCC3)n2)c2ccccc21 (stereo not drawn) [Compound 19, N-(4-Methyl-3,4-dihydro-2H-naphthalen-1-ylidene)-N′-[6-morpholin-4-yl-2-(2-morpholin-4-yl-ethoxy)-pyrimidin-4-yl]-hydrazine] | ≥ 1000 nM
c1ccc2c(c1)OCC/C2=N\Nc1cc(N2CCOCC2)nc(OCCN2CCOCC2)n1 [Compound 12, N-(Chroman-4-ylidene)-N′-[6-morpholin-4-yl-2-(2-morpholin-4-yl-ethoxy)-pyrimidin-4-yl]-hydrazine] | ≥ 1000 nM
O=S1(=O)CC/C(=N\Nc2cc(N3CCOCC3)nc(OCCN3CCOCC3)n2)c2cc(Cl)ccc21 [Compound 38, N-(6-Chloro-1,1-dioxo-1λ^6-thiochroman-4-ylidene)-N′-[6-morpholin-4-yl-2-(2-morpholin-4-yl-ethoxy)-pyrimidin-4-yl]-hydrazine] | ≥ 1000 nM
Oc1ccc2c(c1)CCC/C2=N\Nc1cc(N2CCOCC2)nc(OCCN2CCOCC2)n1 [Compound 16, N-(6-Hydroxy-3,4-dihydro-2H-naphthalen-1-ylidene)-N′-[6-morpholin-4-yl-2-(2-morpholin-4-yl-ethoxy)-pyrimidin-4-yl]-hydrazine] | < 1000 nM
Cc1ccc2occ/c(=N\Nc3cc(N4CCOCC4)nc(OCCN4CCOCC4)n3)c2c1 [Compound 39, N-(6-Methyl-chromen-4-ylidene)-N′-[6-morpholin-4-yl-2-(2-morpholin-4-yl-ethoxy)-pyrimidin-4-yl]-hydrazine] | < 1000 nM
Cc1cccc2c1CC/C2=N\Nc1cc(N2CCOCC2)nc(OCCN2CCOCC2)n1 [Compound 7, N-(4-Methyl-indan-1-ylidene)-N′-[6-morpholin-4-yl-2-(2-morpholin-4-yl-ethoxy)-pyrimidin-4-yl]-hydrazine] | ≥ 1000 nM

system: Adjuvant arthritis (AA) in female Lewis rats; assay: Treatment of adjuvant arthritis in rats; format: in vivo, rat; settings: 20 mg/kg dose, orally once a day for 7 days (day 7-14)
Method: Adjuvant arthritis (AA) was induced in female Lewis rats by the intracutaneous injection (base of the tail) of 0.1 mL of a 10 mg/mL bacterial suspension made from ground, heat-killed Mycobacterium tuberculosis H37Ra suspended in incomplete Freund's adjuvant. Rats were given a test compound orally once a day for 7 days (day 7-14), starting day 7 after mycobacterium induction. The development of polyarthritis was monitored daily by macroscopic inspection and assignment of an arthritis index to each animal, during the critical period (days 10 to 25 post-immunization).
The intensity of polyarthritis was scored according to the following scheme: (a) Grade each paw from 0 to 3 based on erythema, swelling, and deformity of the joints: 0 for no erythema or swelling; 0.5 if swelling is detectable in at least one joint; 1 for mild swelling and erythema; 2 for swelling and erythema of both tarsus and carpus; and 3 for ankylosis and bony deformity. Maximum score for all 4 paws is thus 12. (b) Grade for other parts of the body: for each ear, 0.5 for redness and another 0.5 if knots are present; 1 for connective tissue swelling (saddle nose); and 1 for the presence of knots or kinks in the tail. The highest possible arthritic index is 16.
Experiments with the AA model were repeated four times. […] The arthritis score used in this model is a reflection of the inflammatory state of the structures monitored and the results therefore show the ability of the test compound to provide relief for this aspect of the pathology.

SMILES | percent reduction in arthritic score
Cc1ccc2c(c1)/C(=N/Nc1cc(N3CCOCC3)nc(OCCN3CCOCC3)n1)CCO2 [Compound 2, N-(6-Methyl-chroman-4-ylidene)-N′-[6-morpholin-4-yl-2-(2-morpholin-4-yl-ethoxy)-pyrimidin-4-yl]-hydrazine] | 21% reduction
Cc1ccc2c(c1)/C(=N/Nc1cc(N3CCOCC3)nc(OCCN3CCOCC3)n1)CC2 [Compound 3, N-(6-Methyl-indan-1-ylidene)-N′-[6-morpholin-4-yl-2-(2-morpholin-4-yl-ethoxy)-pyrimidin-4-yl]-hydrazine] | 25% reduction

same assay, conditions: 50 mg/kg dose, orally once a day for 7 days (day 7-14)

SMILES | percent reduction in arthritic score
Cc1ccc2c(c1)/C(=N/Nc1cc(N3CCOCC3)nc(OCCN3CCOCC3)n1)CCO2 [Compound 2, N-(6-Methyl-chroman-4-ylidene)-N′-[6-morpholin-4-yl-2-(2-morpholin-4-yl-ethoxy)-pyrimidin-4-yl]-hydrazine] | 32% reduction
